# Data from patent US20220194938A1, “NOVEL COMPOUNDS AND PHARMACEUTICAL COMPOSITIONS THEREOF FOR THE TREATMENT OF INFLAMMATORY DISORDERS” (GALAPAGOS NV, priority 2019, published 2022).
# Biological target: T1, hERG channel (Homo sapiens, UniProt Q12809)
# T1 construct: host or cells: HEK293
# Assay: hERG channel test - manual patch clamp assay
# Format: cell-based
# Details: HEK293 cells stably transfected with hERG, tail current
# Description: 4.7 hERG Channel Test—Manual Patch Clamp Assay
# The aim of this assay is to determine the in-vitro effects of a test compound on hERG current ([…]) expressed in Human Embryonic Kidney (HEK) cells (evaluation of the blocking profile of test substance on the IKr-like potassium current mediated by hERG channel stably transfected in a human cell line), which is linked to cardiac safety.
# The test substance is dissolved in pure dimethylsulfoxide (DMSO) by cold stirring to give a stock solution concentrated 333-fold as compared with the highest concentration to be tested. This stock solution is used to prepare the other stock solutions in DMSO. Each stock solution is used to prepare the solutions containing the final concentrations tested by dilution in extracellular solution (0.1, 1, 10 and 100 μM). Final concentration of DMSO should not not exceed 0.3%.
# All formulations are prepared in glass containers.
# If a slight opalescence persists at the highest concentration, a 50 μM (instead of 100 μM) concentration is tested.
# DMSO diluted in extracellular solution (at the different concentrations used in the final test substance solutions) is used as vehicle.
# The extracellular solution is constituted as follows (mM): K-gluconate: 4 mM/Na-gluconate: 145 mM/Mg-gluconate: 2 mM/Ca-gluconate: 3.5 mM/HEPES: 5 mM/glucose: 5 mM/mannitol: 20 mM. The pH is adjusted with NaOH to 7.40±0.05.
# Human embryonic kidney (HEK293) cells are stably transfected with the hERG clone (Creacell) and are maintained at 37° C. in a 5% CO2/95% air incubator. Cells used for the study are transferred to an experimental chamber of approximately 2 mL which is maintained at a temperature of 35±0.5° C. by a thermoelectric device (Harvard Apparatus: Type TC-344B) and mounted on the platform of an inverted microscope (Olympus: Type IX-51 or Leica DMI3000 B). Cells are continuously superfused with Tyrode's solution constituted as follows (mM): NaCl: 145/KCl: 4/HEPES: 5/glucose: 5/CaCl2:1/MgCl2: 1.
# Ionic currents from hERG-transfected cells are measured using the whole cell configuration of the patch clamp technique. Glass pipettes are pulled from borosilicate glass by a vertical puller (Sutter Instruments: Type P30). Pipette tip resistance is approximately 1.5 to 3.5 MΩ when filled with internal solution constituted as follows (mM): K-gluconate: 145/Mg-gluconate: 1/EGTA: 2/HEPES:5/K2ATP: 2.
# The pipettes are connected to the input stage of a patch-clamp amplifier (Axon Instruments: Multiclamp 700B-1). Stimulation, data recording and analysis are performed using specialized Axon Instruments software (pClamp 9.2.0. or pClamp 10.3.0.2).
# After rupture of the cell membrane (entering whole-cell mode), cells are stimulated every 10 seconds using the following protocol: 500 ms pulse to +10 mV from a holding potential of −80 mV followed by a 500 ms pulse to −40 mV during which tail current is measured.
# Once the current under control conditions is stable, recordings are taken before (control) and after addition of the test substance. The effect of the test substance on tail current is monitored continuously until steady-state is reached. The peak tail current amplitude is averaged for 3 stimuli.
# The following parameters are measured: • Cell capacitance (pF). • Peak tail current amplitude (pA).
# Peak tail current measurements are normalized using the cell capacitance as an index of cell surface.
# The cells will be considered as valid if cell capacitance <80 pF, access resistance <20 MΩ and holding current >−200 pA.
# Results are expressed as absolute values and as percentage change from control (percentage of tail current inhibition).
# The test substance is studied at 4 ascending concentrations on 3 hERG-transfected cells.
# The concentration of test substance inducing 50% of inhibition (IC50) of tail current is determined, if possible, from each individual concentration-response curve. The equation is of the following form: […]
# T1 sequence (Q12809 whole entry): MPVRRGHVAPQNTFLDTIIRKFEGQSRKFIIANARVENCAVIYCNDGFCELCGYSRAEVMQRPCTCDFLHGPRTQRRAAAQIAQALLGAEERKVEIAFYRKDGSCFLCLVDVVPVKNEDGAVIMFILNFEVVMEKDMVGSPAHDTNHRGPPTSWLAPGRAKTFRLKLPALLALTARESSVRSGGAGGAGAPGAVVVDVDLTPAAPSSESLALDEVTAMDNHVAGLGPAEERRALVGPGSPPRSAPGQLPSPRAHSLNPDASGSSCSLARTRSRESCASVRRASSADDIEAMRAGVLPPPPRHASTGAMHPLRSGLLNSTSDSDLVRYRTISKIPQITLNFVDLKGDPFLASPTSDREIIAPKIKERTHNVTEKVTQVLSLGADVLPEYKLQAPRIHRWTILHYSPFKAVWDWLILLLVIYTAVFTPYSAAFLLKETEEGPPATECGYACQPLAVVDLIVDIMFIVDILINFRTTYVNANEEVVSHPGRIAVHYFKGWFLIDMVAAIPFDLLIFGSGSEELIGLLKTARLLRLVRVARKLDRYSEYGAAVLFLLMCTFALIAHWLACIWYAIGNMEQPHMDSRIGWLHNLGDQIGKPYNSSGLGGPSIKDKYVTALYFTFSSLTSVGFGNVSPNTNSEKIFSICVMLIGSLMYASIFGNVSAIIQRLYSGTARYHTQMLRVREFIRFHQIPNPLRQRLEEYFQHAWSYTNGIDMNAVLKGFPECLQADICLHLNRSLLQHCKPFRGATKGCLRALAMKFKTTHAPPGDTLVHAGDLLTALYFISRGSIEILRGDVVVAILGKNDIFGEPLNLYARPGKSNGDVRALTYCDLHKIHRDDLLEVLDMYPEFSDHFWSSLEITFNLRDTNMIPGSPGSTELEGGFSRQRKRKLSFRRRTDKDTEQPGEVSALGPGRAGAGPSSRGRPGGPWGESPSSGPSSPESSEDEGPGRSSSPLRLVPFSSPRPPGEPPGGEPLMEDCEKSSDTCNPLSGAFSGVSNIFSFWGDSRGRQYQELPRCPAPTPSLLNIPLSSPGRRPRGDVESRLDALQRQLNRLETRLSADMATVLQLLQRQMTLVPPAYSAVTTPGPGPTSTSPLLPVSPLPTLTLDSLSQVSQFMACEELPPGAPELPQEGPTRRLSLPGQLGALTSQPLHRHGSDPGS
Structure (SMILES),hERG Manual Patch Clamp Single dose PIN (10 μM) [%],IC50 [µM]
"CNC(=O)c1cc2nc(CCC(C)(C)O)cn2cc1NC(=O)c1cccc(C(F)(F)F)n1 [Compound 2, 2-(3-hydroxy-3-methyl-butyl)-N-methyl-6-[[6-(trifluoromethyl)pyridine-2-carbonyl]amino]imidazo[1,2-a]pyridine-7-carboxamide]",−44.7,19.2
"COc1cc2nc(CCC(C)(C)O)cn2cc1NC(=O)c1cccn(C2CC2)c1=O [Compound 5, 1-cyclopropyl-N-[2-(3-hydroxy-3-methyl-butyl)-7-methoxy-imidazo[1,2-a]pyridin-6-yl]-2-oxo-pyridine-3-carboxamide]",−25,
"COc1cc2nc(CCC(C)(C)O)cn2cc1NC(=O)c1cccn(C(F)F)c1=O [Compound 12, 1-(difluoromethyl)-N-[2-(3-hydroxy-3-methyl-butyl)-7-methoxy-imidazo[1,2-a]pyridin-6-yl]-2-oxo-pyridine-3-carboxamide]",−76.3,3.05
"CC(C)(O)CCc1cn2cc(NC(=O)c3cccc(C(F)(F)F)n3)c(C(N)=O)cc2n1 [Compound 31, 2-(3-hydroxy-3-methyl-butyl)-6-[[6-(trifluoromethyl)pyridine-2-carbonyl]amino]imidazo[1,2-a]pyridine-7-carboxamide]",−46.7,16.3
"CCOc1c(NC(=O)c2cccn(C3CC3)c2=O)cn2cc(CCC(C)(C)O)nc2c1F [Compound 37, 1-cyclopropyl-N-[7-ethoxy-8-fluoro-2-(3-hydroxy-3-methyl-butyl)imidazo[1,2-a]pyridin-6-yl]-2-oxo-pyridine-3-carboxamide]",−56.3,6.99
"CCOc1c(NC(=O)c2cccn(C)c2=O)cn2cc(CCC(C)(C)O)nc2c1F [Compound 38, N-[7-ethoxy-8-fluoro-2-(3-hydroxy-3-methyl-butyl)imidazo[1,2-a]pyridin-6-yl]-1-methyl-2-oxo-pyridine-3-carboxamide]",−30.0,
"CCOc1c(NC(=O)c2cccn(C3CC3)c2=O)cn2cc(CCS(C)(=O)=O)nc2c1F [Compound 39, 1-cyclopropyl-N-[7-ethoxy-8-fluoro-2-(2-methylsulfonylethyl)imidazo[1,2-a]pyridin-6-yl]-2-oxo-pyridine-3-carboxamide]",−39.7,> 10
"COc1c(NC(=O)c2cccn(C3CC3)c2=O)cn2cc(CCC(C)(C)O)nc2c1F [Compound 42, 1-cyclopropyl-N-[8-fluoro-2-(3-hydroxy-3-methyl-butyl)-7-methoxy-imidazo[1,2-a]pyridin-6-yl]-2-oxo-pyridine-3-carboxamide]",−12,> 92.3
"CC(C)(O)CCc1cn2cc(NC(=O)c3cccc(C(F)(F)F)n3)c(C(=O)NCC(F)F)cc2n1 [Compound 48, N-(2,2-difluoroethyl)-2-(3-hydroxy-3-methylbutyl)-6-(6-(trifluoromethyl)picolinamido)imidazo[1,2-a]pyridine-7-carboxamide]",−20.5,
"CCNC(=O)c1cc2nc(CCC(C)(C)O)cn2cc1NC(=O)c1cccc(C(F)(F)F)n1 [Compound 49, N-ethyl-2-(3-hydroxy-3-methylbutyl)-6-(6-(trifluoromethyl)picolinamido)imidazo[1,2-a]pyridine-7-carboxamide]",−17,
